Measured values taken from patent US10821160B2, “L-asparaginase variants and fusion proteins with reduced L-glutaminase activity and enhanced stability” (priority 2016, dated 2020).
Where “and” joins values, the source holds several entries; their conditions need not be identical. Equal entries are not always repeated.

Key:
[1] = target: T1, Erwinia chrysanthemi L-asparaginase (ErA) variant A31I-E63Q (ErA-DM2), SEQ ID NO:4 (Dickeya chrysanthemi, UniProt P06608, A52I/E84Q); format: biochemical
T1 construct: lacking the first 21-amino acid residue signal peptide; His6-SUMO (yeast Smt3p) (N, cleaved yes); made in house; host or cells: E. coli BL21(DE3) C41
Description: (§1) A conventional assay for determining L-glutaminase activity (Gella & Pascual (1982) Anal. Biochem. 127:322-5) was used with some modifications. The purified enzyme was mixed into a solution containing 50 mM Tris-HCl pH 8.5, 1 mg/mL BSA, 7 U GDH (Glutamate dehydrogenase, Sigma-Aldrich), 3 mM INT (Iodonitrotetrazolium chloride, Sigma-Aldrich), 100 mM PMS (Phenazine methosulfate, Sigma-Aldrich), and 100 mM NAD+. […] The latter, in the presence of NAD+ and under the catalysis of GDH, is broken further into α-ketoglutarate and ammonia. NADH produced by this second reaction, together with INT serve as inputs to the third reaction, where the formation of INT-formazan under the catalysis of PMS can be followed spectrophotometrically as an increase in absorbance at 500 nm. All reactions were carried out at 37° C. 1 IU of enzyme is defined as the amount of enzyme used to produce 1 μmole of product in 1 minute at 37° C.
(§2) Using colorimetric enzyme-coupled assays, L-asparaginase and L-glutaminase activity of the enzymes was determined.

[2] = target: T2, Erwinia chrysanthemi L-asparaginase (ErA) variant E63Q-S254N (ErA-DM1), SEQ ID NO:3 (Dickeya chrysanthemi, UniProt P06608, E84Q/S275N); format: biochemical
T2 construct: lacking the first 21-amino acid residue signal peptide; His6-SUMO (yeast Smt3p) (N, cleaved yes); made in house; host or cells: E. coli BL21(DE3) C41
Description: as §1, §2

[3] = target: T3, Erwinia chrysanthemi L-asparaginase (ErA) variant E63Q-S254Q (ErA-DM3), SEQ ID NO:5 (Dickeya chrysanthemi, UniProt P06608, E84Q/S275N); assay: L-glutaminase activity, GDH/INT coupled assay; format: biochemical; conditions: Gln, head prints 50 mM
T3 construct: lacking the first 21-amino acid residue signal peptide; His6-SUMO (yeast Smt3p) (N, cleaved yes); made in house; host or cells: E. coli BL21(DE3) C41
Description: as §1, §2

[4] = target: T4, Erwinia chrysanthemi L-asparaginase (ErA) variant E63Q-S254Q (ErA-DM3), SEQ ID NO:5 (Dickeya chrysanthemi, UniProt P06608, E84Q/S275Q); assay: L-glutaminase activity, GDH/INT coupled assay; format: biochemical
T4 construct: lacking the first 21-amino acid residue signal peptide; His6-SUMO (yeast Smt3p) (N, cleaved yes); made in house; host or cells: E. coli BL21(DE3) C41
Description: as §1, §2

[5] = test system: Erwinia chrysanthemi L-asparaginase (ErA) variant E63Q-S254Q (ErA-DM3), SEQ ID NO:5; assay: L-glutaminase activity, GDH/INT coupled assay; format: biochemical; conditions: Gln, 37° C
Description: as §1, §2

[6] = target: T5, Erwinia chrysanthemi L-asparaginase, wild type (ErA-WT), SEQ ID NO:1 (Dickeya chrysanthemi, UniProt P06608); assay: L-glutaminase activity, GDH/INT coupled assay; format: biochemical
T5 construct: lacking the first 21-amino acid residue signal peptide; His6-SUMO (yeast Smt3p) (N, cleaved yes); made in house; host or cells: E. coli BL21(DE3) C41
Description: as §1, §2

[7] = target: T6, Escherichia coli L-asparaginase, wild type (EcA-WT), SEQ ID NO:9 (Escherichia coli, UniProt P00805); assay: L-glutaminase activity, GDH/INT coupled assay; format: biochemical
T6 sequence (P00805 with tags, fused parts or gaps): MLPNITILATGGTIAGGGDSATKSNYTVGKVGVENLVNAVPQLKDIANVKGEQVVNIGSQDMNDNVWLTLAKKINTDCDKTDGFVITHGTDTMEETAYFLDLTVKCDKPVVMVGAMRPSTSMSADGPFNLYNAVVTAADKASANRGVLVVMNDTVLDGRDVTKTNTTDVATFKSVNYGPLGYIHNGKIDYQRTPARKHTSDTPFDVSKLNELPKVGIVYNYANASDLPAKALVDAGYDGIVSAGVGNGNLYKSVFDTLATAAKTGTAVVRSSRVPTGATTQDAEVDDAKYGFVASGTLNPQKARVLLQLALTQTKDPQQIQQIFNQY
Description: as §1

[8] = target: Erwinia chrysanthemi L-asparaginase (ErA) variant A31I-E63Q-S254Q (ErA-TM2), SEQ ID NO:6 (Dickeya chrysanthemi, UniProt P06608, A52I/E84Q/S275Q)
Description: as §1

[9] = target: T7, Erwinia chrysanthemi L-asparaginase (ErA) variant A31I-E63Q-S254N (ErA-TM1), SEQ ID NO:7 (Dickeya chrysanthemi, UniProt P06608, A52I/E84Q/S275N); format: biochemical
T7 construct: lacking the first 21-amino acid residue signal peptide; His6-SUMO (yeast Smt3p) (N, cleaved yes); made in house; host or cells: E. coli BL21(DE3) C41
Description: as §1

[10] = test system: Erwinia chrysanthemi L-asparaginase (ErA) variants ErA-E63Q, ErA-DM2 (A31I-E63Q) and ErA-DM1 (E63Q-S254N); assay: L-glutaminase activity of the mutants as a group vs ErA-WT; format: biochemical
Description: as §1, §2

[11] = target: Erwinia chrysanthemi L-asparaginase (ErA) variant E63Q (ErA-E63Q), SEQ ID NO:2 (Dickeya chrysanthemi, UniProt P06608, E84Q); format: biochemical; design: lacking the first 21-amino acid residue signal peptide; His6-SUMO (yeast Smt3p) (N, cleaved yes); made in house; host or cells: E. coli BL21(DE3) C41
Description: as §1, §2

NC(=O)C[C@H](N)C(=O)O [12] = assay: purified protein, by the assay type; format: biochemical, Erwinia chrysanthemi; conditions: other: Asn, 37° C
NC(=O)CC[C@H](N)C(=O)O = assay: purified protein, by the assay type; conditions: other: Gln, 37° C, pH 8.5
NC(=O)C[C@H](N)C(=O)O [13] = assay: purified protein, by the assay type; conditions: other: Asn, 37° C
NC(=O)C[C@H](N)C(=O)O [14] = assay: purified protein, by the assay type; format: biochemical, Erwinia chrysanthemi; conditions: other: Asn, 37° C; remark: listed apart in the source
Description: (§3) L-asparaginase activity was determined using a continuous spectroscopic enzyme-coupled assay as previously described (Schalk, et al. (2014) J. Biol. Chem. 289:33175-33186). In brief, the assay measures the production of L-aspartate through the 1:1 oxidation of reduced NADH. The conversion of NADH to NAD^+ was measured spectrophotometrically as a decrease in absorbance at 340 nm at 37° C. All measurements were taken in triplicate. Rates were fit to the Michaelis-Menten equation using SIGMAPLOT software (Systat Software Inc).
Using colorimetric enzyme-coupled assays, L-asparaginase and L-glutaminase activity of the enzymes was determined. […] Seventeen of the 18 mutants had reduced L-glutaminase activity (Table 7). However, for most of the mutants, this decrease was concomitant with a decline in the L-asparaginase activity. Using the criteria of (i) ≥60% retained L-asparaginase activity (relative to Erw-WT) and (ii) ≤5% L-glutaminase versus and L-asparaginase activity, mutants ErA-E63Q, ErA-S254P, ErA-A31I+E63Q and ErA-S254N+E63Q were selected for further study.

[15] = substrate: NC(=O)C[C@H](N)C(=O)O; assay: L-asparaginase activity, continuous spectroscopic enzyme-coupled assay; format: biochemical, Escherichia coli; conditions: other: Asn, 37° C
Description: as §3
The parameters that define the asparagine-depleting power of such enzyme drugs are of significance. […] Enzymologists often combine these two parameters into a single value (kcat/Km) that is thought to represent the efficiency of the enzyme. […] Therefore, the ErA enzyme was selected for developing a variant with low L-glutaminase activity.

[16] = substrate: NC(=O)CC[C@H](N)C(=O)O; assay: L-glutaminase activity, GDH/INT coupled assay; format: biochemical, Escherichia coli; conditions: other: Gln, 37° C, pH 8.5
Description: as §1

NC(=O)CC[C@H](N)C(=O)O [Gln, L-glutamine]
kobs @100 μM ([1]; 100 μM Gln): 0.105 s⁻¹
kobs @0.5 mM ([1]; 0.5 mM Gln): 0.83 s⁻¹
kobs @500 μM ([1]; 500 μM Gln): 0.73 s⁻¹
kobs @1 mM ([1]; 1 mM Gln): 2.20 s⁻¹
Km ([1]; Gln, 37° C): 2.73 ± 0.02 mM
kcat ([1]; Gln, 37° C): 6.01 ± 0.13 s⁻¹
kcat/Km ([1]; Gln, 37° C): 2.2 × 10^−3 sec^−1μM^−1
kobs @100 μM ([2]; 100 μM Gln): 0.019 s⁻¹
kobs @0.5 mM ([2]; 0.5 mM Gln): 0.11 s⁻¹
kobs @500 μM ([2]; 500 μM Gln): 0.07 s⁻¹
kobs @1 mM ([2]; 1 mM Gln): 0.18 s⁻¹
Km ([2]; Gln, 37° C): 15.8 ± 0.3 mM
kcat ([2]; Gln, 37° C): 2.93 ± 0.03 s⁻¹
kcat/Km ([2]; Gln, 37° C): 0.19 × 10^−3 sec^−1μM^−1
kobs @ 50 mM [3]: 0.11 s⁻¹
kobs @100 μM ([4]; 100 μM Gln): 0.009 s⁻¹
kobs @0.5 mM ([4]; 0.5 mM Gln): 0.0226 s⁻¹
kobs @500 μM ([4]; 500 μM Gln): 0.02 s⁻¹
kobs @1 mM ([4]; 1 mM Gln): 0.19 s⁻¹
Km [5]: 84 mM
kobs @100 μM ([6]; 100 μM Gln): 6.118 s⁻¹
kobs @0.5 mM ([6]; 0.5 mM Gln): 15.87 s⁻¹
kobs @500 μM ([6]; 500 μM Gln): 15.06 s⁻¹
kobs @1 mM ([6]; 1 mM Gln): 19.22 s⁻¹
kcat/Km ([6]; Gln, 37° C): 74.56 × 10^−3 sec^−1μM^−1
kobs @ 50 mM ([6]; Gln, head prints 50 mM): 15.87 s⁻¹
kobs @100 μM ([7]; 100 μM Gln): 0.047 s⁻¹
kobs @0.5 mM ([7]; 0.5 mM Gln): 0.22 s⁻¹
kobs @500 μM ([7]; 500 μM Gln): 0.22 s⁻¹
kobs @1 mM ([7]; 1 mM Gln): 0.36 s⁻¹
kobs @ 50 mM ([7]; Gln): 0.22 s⁻¹
kcat/Km ([7]; Gln, 37° C): 0.64 × 10^−3 sec^−1μM^−1
kobs @100 μM ([8]; 100 μM Gln): 0.0045 s⁻¹
kobs @0.5 mM ([8]; 0.5 mM Gln): 0.0083 s⁻¹
kobs @500 μM ([8]; 500 μM Gln): 0.0083 s⁻¹
Km ([8]; Gln, 37° C): 47.5 mM
kcat ([8]; Gln, 37° C): 1.836 ± 0.11 s⁻¹
kcat/Km ([8]; Gln, 37° C): 0.04 × 10^−3 sec^−1μM^−1
kobs @0.5 mM ([9]; 0.5 mM Gln): 0.11 s⁻¹
kobs @1 mM ([9]; 1 mM Gln): 0.33 s⁻¹
Km ([9]; Gln, 37° C): 28.2 mM
kcat ([9]; Gln, 37° C): 5.6 ± 0.2 s⁻¹
kcat/Km ([9]; Gln, 37° C): 0.19 × 10^−3 sec^−1μM^−1
observed L-glutaminase rate reduced by ([10]; 0.5 mM Gln, relative to ErA-WT): 95-99%
L-glutaminase efficiency (kcat/Km) reduced by ([10]; Gln, vs ErA-WT): 20-400 fold
increased Km (fold higher compared ErA-WT) ([10]; Gln, vs ErA-WT): 8-44 fold
reduced kcat (fold lower compared ErA-WT) ([10]; Gln, vs ErA-WT): 3-9 fold
kobs @100 μM ([11]; 100 μM Gln): 0.098 s⁻¹
kobs @0.5 mM ([11]; 0.5 mM Gln): 0.74 s⁻¹
kobs @500 μM ([11]; 500 μM Gln): 0.72 s⁻¹
kobs @1 mM ([11]; 1 mM Gln): 2.16 s⁻¹
Km ([11]; Gln, 37° C): 3.86 ± 0.23 mM
kcat ([11]; Gln, 37° C): 8.33 ± 0.16 s⁻¹
kcat/Km ([11]; Gln, 37° C): 3.68 sec^−1mM^−1 and 3.68 × 10^−3 sec^−1μM^−1

Erwinia chrysanthemi L-asparaginase (ErA) variant E63Q-S254N (ErA-DM1), SEQ ID NO:3 (Dickeya chrysanthemi; E84Q/S275N)
Km (NC(=O)C[C@H](N)C(=O)O [12]): 0.185 mM

Erwinia chrysanthemi L-asparaginase (ErA) variant A31I-E63Q-S254Q (ErA-TM2), SEQ ID NO:6 (Dickeya chrysanthemi; A52I/E84Q/S275Q)
Km (NC(=O)CC[C@H](N)C(=O)O): 47.5 ± 0.7 mM

Erwinia chrysanthemi L-asparaginase (ErA) variant E63Q (ErA-E63Q), SEQ ID NO:2 (Dickeya chrysanthemi; E84Q)
Km (NC(=O)C[C@H](N)C(=O)O [13]): 0.051 mM

Erwinia chrysanthemi L-asparaginase (ErA) variant A31I-E63Q (ErA-DM2), SEQ ID NO:4 (Dickeya chrysanthemi; A52I/E84Q)
Km (NC(=O)C[C@H](N)C(=O)O [14]): 0.037 mM

B1: Escherichia coli L-asparaginase, wild type (EcA-WT), SEQ ID NO:9 (Escherichia coli K-12) (protein)
chain: T6 sequence (P00805 with tags, fused parts or gaps)
Km [15]: 0.015 ± 0.0005 mM
kcat [15]: 44.4 ± 0.3 s⁻¹
kcat/Km [15]: 2.96e+06 M⁻¹ s⁻¹
Km [16]: 1.38 ± 0.09 mM
kcat [16]: 0.89 ± 0.01 s⁻¹
kcat/Km [16]: 640 M⁻¹ s⁻¹
